The record followed here is PMC5750218, “Protein-inspired antibiotics active against vancomycin- and daptomycin-resistant bacteria” (Nature Communications, 2018).

In brackets after ≈: the same amount, converted by molar mass. Bounds are passed on as bounds.

In series [1] the test system is S. aureus ATCC 43300 (MRSA). The series can be described thus: Time kill assay. The class given is cell-based, Staphylococcus aureus. Here is the method: S. aureus ATCC® 43300™ (MRSA) was cultured in MHB (BactoLaboratories, Cat. No 211443) at 37 °C overnight. A sample was then diluted 40-fold in fresh MHB and incubated at 37 °C for 2–3 h until the culture reached early exponential phase (OD600 of 0.2–0.4). Vancapticin 24 ([…] and 0.003 µg mL^−1) and vancomycin (4, 2, 1 and 0.5 µg mL^−1) were serially diluted twofold across the wells of 96-well microtitre plates (NBS, Corning 3641) with a final volume of 50 µL, then combined with 50 µL of bacterial inoculum (giving a final cell density of 5 × 10^5 CFU mL^−1) and incubated at 37 °C. Serial dilutions of the cultures were plated at each desired time point, using a multichannel pipette as follows: in row A of a 96-well plate, 50 µL of sterile activated charcoal suspension (25 mg mL^−1) was added, while 90 µL of 0.9% sterile saline per well was added to the other rows. At selected time-points, 50 µL aliquots were transferred from the time-kill assay plate to the first row containing the charcoal suspension and mixed well. […] The colonies in each spot were counted and used to calculate the number of viable CFU mL^−1 remaining in the original culture by considering the dilution factors (1:2 in charcoal, the serial dilution factor and the volume of the aliquot spotted).

Series [2] concerns S. pneumoniae (ATCC 6301). Briefly: S. pneumoniae lung infection in vivo efficacy model (mice). Further details: species or system Streptococcus pneumoniae. Particulars: 25 mg kg^−1 SC qd, 10 days.
Description: The study objective was to evaluate the antimicrobial activity of test articles in a lung infection model with S. pneumoniae (ATCC® 6301™). Male ICR mice were inoculated intratracheally (IT) with S. pneumoniae at an inoculum size of 2.96 × 10^6 CFU per mouse (20 µL per mouse). […] The reference standard, vancomycin 1, was dosed at 25 mg kg^−1 qd SC at 2 h after IT inoculation. […] An increase in survival rate of 50 percent or more ( ≥ 50%) of the treated animals relative to the vehicle group indicates significant antimicrobial activity.
Test substances at 25 mg kg^−1 were each administered subcutaneously (SC) to test animals 2 h after inoculation. The dosing volume was 10 mL kg^−1.
Vehicle (10 mL kg^−1), vancomycin and test substances at 25 mg kg^−1 were each administered subcutaneously 2 h post-infection. Mortality was recorded daily for 10 days following inoculation. Increase of 50 percent or more (≥ 50%) in survival rate relative to the vehicle control group indicates significant anti-infective activity.
For series [3], the system named is S. aureus (MRSA) ATCC 43300. Briefly: Resistance frequency assay. It counts as cell-based. Conditions: Staphylococcus aureus; TSB 1% agarose, 0.002% Tween 80; read-out: Agarose plate MIC.
Description: The resistance frequency for Compound 19 was determined following literature procedures[41], [42].
Compound 19 was prepared to 160 µg mL^−1 solution in water from the given stock solution of 1 mM concentration. Vancomycin was prepared to 1.28 mg mL^−1 solution in water.
Tryptic soy broth (TSB) with 1% agarose and 0.002% Tween 80 was maintained at 45 to 50 °C in a water bath. 160 mL of agarose was transferred to 200 mL glass bottle, maintaining the remaining agarose in the water bath. […] A volume of 80 mL of agarose sample [A] was plated in four petri plates (duplicates/condition—neat, 10^−1) with swirling to ensure that the bottom of the plate was coated equally. An additional 80 mL of fresh agarose was added to the remaining 80 mL of agarose [A] sample to achieve a twofold dilution to provide agarose sample [B]. Once again, 80 mL of agarose sample [B] was plated in four petri plates. […]
Bacteria were subcultured at 37 °C overnight with shaking at 220 rpm. […] Resultant separated visible colonies were counted; those colonies that grow together were not included to determine the titre of the culture. […]
The colonies were counted after 24 h. The resistance frequency is determined by dividing the number of colonies obtained on the plates containing the antibacterial agent by the number of cells plated.
The next series relates to MRSA. Conditions: MRSA in 50% human serum / 50% MHB. How it is done:
The compounds, along with standard antibiotics were serially diluted twofold across the wells of 96-well non-binding surface (NBS) polystyrene plates (Corning 3641). […] Standards ranged from 64 to 0.03 µg mL^−1 and compounds from 8 to 0.003 µg mL^−1 with final assay volumes of 100 µL per well. Gram-positive bacteria were cultured in Mueller Hinton broth (MHB) (Bactolaboratories, Cat. no. 211443) at 37 °C overnight. A sample of each culture was then diluted 40-fold in fresh MHB and incubated at 37 °C for 2–3 h. […] All the plates were covered and incubated at 37 °C for 24 h. MICs were the lowest concentration showing no visible growth.
The compounds, along with standard antibiotics, tested in BMD-MIC assay as above, in the presence of a mixture of 50% human serum (Sigma-Aldrich) and 50% MHB.

Series [4] is described as follows: Critical micelle concentration assay. It counts as physicochemical. Conditions: 0.2 M NaCl, DPH. How it is done:
CMCs were determined as previously described[46] with a higher throughput modification. Briefly, a cascade dilution of each antibiotic was performed in a low binding polypropylene V-bottom shaped 96-well plates in the presence of 0.2 M NaCl solution across 12 concentrations ranging from 1000 to 0.1 μM, except the control melittin (100 to 0.01 μM). An identical cascade dilution was performed for the neutral detergent Triton X-100 and the anionic detergent sodium dodecyl sulphate (SDS) starting from 0.1% down to 0.00001% (vol:vol for Triton X-100 and wt:vol for SDS). An aliquot of […] (DPH) in DMSO was added in each well to yield the final DPH concentration of 5 μM. The reaction mixtures were mixed for 30 s and transferred in horizontal triplicate (25 μL per well) into a black falcon 384-well plate. The 384-well plate was then sealed, wrapped up in aluminium foil and incubated for 30 min at room temperature. The fluorescence intensity was monitored in real time using a BMG Labtech PolarStar Omega multimode reader fitted with 360-10 and 430-10 excitation and emission filters respectively, at an excitation wavelength of 360 nm and an emission wavelength of 430 nm.

The nature of series [5]: SPR membrane binding assay. Conditions: L1 chip, DMPC / DMPG bilayers. Here is the method: SPR experiments were performed using a BIAcore 3000 (GE Health) instrument with a Biacore vesicle capture L1 sensor chip. […] Small unilamellar vesicles (SUV) were prepared in phosphate buffered saline (PBS) (pH 7.4) by sonication and extrusion. […] PBS was then added into each flask to give a suspension, which was sonicated for 5 cycles of 5 min each. […] The SUVs were injected across the L1 sensor chip for 30 min at a flow rate of […] to form a supported lipid bilayer. The coverage of the lipid bilayer was determined from the extent of non-specific binding of bovine serum albumin (0.1 mg mL^-1 in PBS, 5 min injection). A series of concentrations of vancomycin and […] passed sequentially over the different phospholipid-containing flow cells at a flow rate of 30 μL min^-1 for 180 s. The amount of antibiotic bound at equilibrium just before the end of the injection was corrected by subtraction of the bulk-refractive index difference observed at the beginning and the end of each injection. After each injection cycle, the lipid surface was regenerated with 20 mM 3-[(3-cholamidopropyl)dimethylammonio]-1-propanesulfonate (CHAPS) and a fresh lipid bilayer was loaded as described above. All assays were carried out at 25 °C in triplicate. […]

The subject of a further series is MRSA (ATCC 43300). Particulars: 20 days, increasing sub-lethal concentrations.

Description for MRSA (ATCC 43300): A resistance induction assay was conducted for vancomycin, daptomycin, compound 17 and compound 24 [43].
S. aureus ATCC®43300™ was grown in Mueller Hinton broth supplemented with 50 µg mL^−1 of CaCl2. The bacterial culture was incubated at 37 °C in a shaker at 195 rpm.
The mid log S. aureus growth culture was serially diluted and plated on a solid LB agar plates in quadruplicates and incubated at 37 °C overnight to determine viable colony count.
The initial determination of the compound MICs were taken from the literature and empirically measured. […] The plate was then incubated at 37 °C overnight.
After overnight incubation, the growth of the S. aureus (MRSA) culture was determined by reading at OD600 on the Epoch microplate spectrophotometer and 0.1 OD600 was the chosen cut-off determining growth vs. no growth.

Regarding `CN[C@H](CC(C)C)C(=O)N[C@H]1C(=O)N[C@@H](CC(N)=O)C(=O)N[C@H]2C(=O)N[C@H]3C(=O)N[C@H](C(=O)N[C@H](C(=O)O)c4cc(O)cc(O)c4-c4cc3ccc4O)[C@H](O)c3ccc(c(Cl)c3)Oc3cc2cc(c3O[C@@H]2O[C@H](CO)[C@@H](O)[C@H](O)[C@H]2O[C@H]2C[C@](C)(N)[C@H](O)[C@H](C)O2)Oc2ccc(cc2Cl)[C@H]1O` [Compound 1, Vancomycin], the “Bactericidal profile in time kill assay” value in series [1] was “slowly bactericidal”. Further, the “survival rate relative to the vehicle control” value in series [2] is reported as at least 50%. For the same compound, in series [3], the MIC stood at 1 mg/L (≈ 0.69 µM).
For `CN[C@H]1C(=O)N[C@@H]2Cc3ccc(cc3)Oc3cc4cc(c3O[C@@H]3O[C@H](C(=O)O)[C@@H](O)[C@H](O)[C@H]3NC(=O)CCCCCCCCC(C)C)Oc3ccc(cc3Cl)[C@@H](O)[C@@H]3NC(=O)[C@H](NC(=O)[C@@H]4NC(=O)[C@@H](NC2=O)c2cc(cc(O)c2Cl)Oc2cc1ccc2O)c1ccc(O)c(c1)-c1c(O[C@H]2O[C@H](CO)[C@@H](O)[C@H](O)[C@@H]2O)cc(O)cc1[C@@H](C(=O)NCCCN(C)C)NC3=O` [Compound 3, Dalbavancin], the “MIC +50% HS” value with MRSA is 8 mg/L (≈ 4.4 µM).
In the case of `CCCCCCCCCCCCCC(=O)N[C@@H](CCCCN)C(=O)N[C@@H](CCCCN)C(=O)N[C@@H](CCCCN)C(=O)N[C@@H](CCCCNC(=O)[C@H]1NC(=O)[C@H]2NC(=O)[C@H](NC(=O)[C@@H]3NC(=O)[C@H](CC(N)=O)NC(=O)[C@H](NC(=O)[C@@H](CC(C)C)NC)[C@H](O)c4ccc(c(Cl)c4)Oc4cc3cc(c4O[C@@H]3O[C@H](CO)[C@@H](O)[C@H](O)[C@H]3O[C@H]3C[C@](C)(N)[C@H](O)[C@H](C)O3)Oc3ccc(cc3Cl)[C@H]2O)c2ccc(O)c(c2)-c2c(O)cc(O)cc21)C(=O)O` [Compound 17, nC13CO-KKK-K(Vancomycin)-OH], in series [4], the “critical micelle concentration (CMC)” value is “exceed 100 µM”. For the same compound, in series [5], the “Membrane association by SPR compared to vancomycin” value is “Increased membrane association”. Also, the “Induced resistance on serial culture” value in the series with MRSA (ATCC 43300) is reported as “low levels of resistance compared to daptomycin”.
